Target: T1, Kv2.1 (Rattus norvegicus, UniProt P15387)
T1 construct: gene Kcnb1
T1 sequence (P15387 1-857): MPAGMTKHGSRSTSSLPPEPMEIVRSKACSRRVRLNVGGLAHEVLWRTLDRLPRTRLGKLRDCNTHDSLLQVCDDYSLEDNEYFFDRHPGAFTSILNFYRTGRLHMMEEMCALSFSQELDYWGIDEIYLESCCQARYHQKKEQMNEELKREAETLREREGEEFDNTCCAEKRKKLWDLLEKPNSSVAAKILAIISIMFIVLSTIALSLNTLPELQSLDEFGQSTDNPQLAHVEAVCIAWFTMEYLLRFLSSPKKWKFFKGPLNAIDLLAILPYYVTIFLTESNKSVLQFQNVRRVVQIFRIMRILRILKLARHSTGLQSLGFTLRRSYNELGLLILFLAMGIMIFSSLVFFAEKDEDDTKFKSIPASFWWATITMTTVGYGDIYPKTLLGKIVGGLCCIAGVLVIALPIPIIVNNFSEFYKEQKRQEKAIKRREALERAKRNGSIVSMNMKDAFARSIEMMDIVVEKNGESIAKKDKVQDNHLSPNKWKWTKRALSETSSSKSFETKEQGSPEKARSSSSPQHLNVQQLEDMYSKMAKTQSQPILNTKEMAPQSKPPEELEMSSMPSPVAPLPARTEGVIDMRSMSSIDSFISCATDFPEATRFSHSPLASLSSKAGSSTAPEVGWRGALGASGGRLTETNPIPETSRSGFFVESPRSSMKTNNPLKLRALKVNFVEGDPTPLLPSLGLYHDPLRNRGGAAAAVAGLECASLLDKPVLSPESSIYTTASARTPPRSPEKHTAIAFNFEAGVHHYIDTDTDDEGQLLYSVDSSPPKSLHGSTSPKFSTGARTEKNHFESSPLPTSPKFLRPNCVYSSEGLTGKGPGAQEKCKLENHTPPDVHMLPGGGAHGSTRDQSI
Assay: whole-cell patch clamp, HEK293 stably expressing Kv2.[…], sigma-1 receptor knockout; […] inhibition at […]
Type: cell-based

With `COc1cccc2c1CCCC2CCCN1CCN(C2CCCCC2)CC1` (stereo not shown) [PB28] the inhibition at 10 µM was 65%.

Source: article PMC5601737, “Potential independent action of sigma receptor ligands through inhibition of the Kv2.1 channel” (Oncotarget, 2017)
